Entries after “also recorded” stand apart in the source; their conditions may differ. Like-named read-outs stand apart in the source and are kept apart here.
Columns and labels:
ITK (IFNγ mRNA) = experiment: SAD ex vivo PD: αCD3/αCD28 stimulated IFNγ mRNA production; format: in vivo; details: Homo sapiens; SAD study; read-out: Clinical EC50
Text: Secondary Endpoints—Compound I plasma concentrations. Mean change from baseline in ex vivo stimulated pSTAT5 and pSTAT1 (signal transducer and activator of transcription); and in ex vivo stimulated IFNγ mRNA (interferon gamma messenger ribonucleic acid).
Summary of SAD data: FIGS. 4-8 and 9-13 show the SAD dose response, SAD exposure response, and SAD calculated response at Cmax by dose respectively for ITK (IL2 mRNA), ITK (IFNγ mRNA), JAK3 (pSTAT5, lymph), JAK3 (pSTAT5, CD3′ T), and ITK & JAK (IFNγ protein). Clinical and pre-clinical IC50 data for ITK (IL2 mRNA), ITK (IFNγ mRNA), JAK3 (pSTAT5, lymph), JAK3 (pSTAT5, CD3^+ T), and ITK & JAK (IFNγ protein) from the SAD study is shown in table 4.

[1] = 13 week toxicology and toxicokinetic study in cynomolgus monkeys; format: in vivo, cynomolgus monkey; details: for AUC(0-t) / Cmax: in vivo
Text: Purpose: Evaluation of toxicity and toxicokinetic (TK) for Compound I, following daily dosing for 13 weeks.

JAK3 = target: T1, JAK3 (Homo sapiens, UniProt P52333); experiment: Cell IC50 JAK3 hPBMC IL-2/pSTAT5; format: cell-based
T1 construct: IL-2/pSTAT5; endogenous in cells; host or cells: human PBMC
T1 sequence (P52333 1-1124): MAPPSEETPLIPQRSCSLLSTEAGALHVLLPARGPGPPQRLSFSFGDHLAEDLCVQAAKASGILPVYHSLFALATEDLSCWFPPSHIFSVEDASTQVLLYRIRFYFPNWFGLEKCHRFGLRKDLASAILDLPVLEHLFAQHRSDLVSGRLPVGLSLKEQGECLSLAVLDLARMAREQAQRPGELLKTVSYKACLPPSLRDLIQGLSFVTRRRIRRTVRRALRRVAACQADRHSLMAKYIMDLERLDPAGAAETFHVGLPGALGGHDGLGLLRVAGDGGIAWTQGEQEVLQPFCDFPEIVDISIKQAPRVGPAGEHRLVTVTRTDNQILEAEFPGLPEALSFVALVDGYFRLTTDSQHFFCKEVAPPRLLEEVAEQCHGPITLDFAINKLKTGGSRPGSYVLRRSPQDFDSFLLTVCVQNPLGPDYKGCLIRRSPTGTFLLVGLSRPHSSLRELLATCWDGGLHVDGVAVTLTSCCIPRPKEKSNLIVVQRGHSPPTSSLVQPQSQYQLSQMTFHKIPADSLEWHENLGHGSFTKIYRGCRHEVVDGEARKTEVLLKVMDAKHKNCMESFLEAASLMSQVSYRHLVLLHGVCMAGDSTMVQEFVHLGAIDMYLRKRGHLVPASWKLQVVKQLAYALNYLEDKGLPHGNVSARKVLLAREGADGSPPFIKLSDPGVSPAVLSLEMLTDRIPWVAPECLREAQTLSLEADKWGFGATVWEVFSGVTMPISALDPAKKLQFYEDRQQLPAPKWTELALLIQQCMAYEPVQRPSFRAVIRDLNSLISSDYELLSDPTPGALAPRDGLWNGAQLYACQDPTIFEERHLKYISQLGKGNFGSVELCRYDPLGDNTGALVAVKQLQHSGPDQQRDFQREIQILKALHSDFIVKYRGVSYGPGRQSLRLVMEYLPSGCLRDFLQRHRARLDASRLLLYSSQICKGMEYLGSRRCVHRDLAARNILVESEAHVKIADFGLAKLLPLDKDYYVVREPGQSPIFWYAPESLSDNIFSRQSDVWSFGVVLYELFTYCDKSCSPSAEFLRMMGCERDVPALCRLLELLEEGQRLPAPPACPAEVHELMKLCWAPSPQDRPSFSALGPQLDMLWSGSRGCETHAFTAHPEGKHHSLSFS

JAK1/2 = experiment: Cell IC50 JAK1/2 hPBMC IFNγ/pSTAT1; format: cell-based, human
ITK and JAK3 = experiment: MAD exploratory PD, all biomarker readouts; format: in vivo, human
Procedure: Exploratory Endpoints—Mean change from baseline in cellular, extracellular (secreted), and/or message markers of inflammation.
Results: 57 subjects completed the MAD study. […] Peak concentrations were reached within 2 hours after dosing.

With `C=CC(=O)N1C[C@H](Nc2ncnc3[nH]cc([C@H]4CC4(F)F)c23)CC[C@@H]1C` [Compound I, 1-((2S,5R)-5-((5-((R)-2,2-difluorocyclopropyl)-7H-pyrrolo[2,3-d]pyrimidin-4-yl)amino)-2-methylpiperidin-1-yl)prop-2-en-1-one] the EC50 (ITK (IFNγ mRNA)) was 12.7 nM, the “No observed adverse effect level” value ([1]; cynomolgus monkey, daily dosing 13 weeks) was 3 mpk and the AUC(0-t) ([1]; cynomolgus monkey, 3 mg/kg, monkey 3 mpk, Day 1, read-out: AUC0-24) was 153 ± 29.1 ng·h/mL. The Cmax ([1]; cynomolgus monkey, 3 mg/kg, monkey 3 mpk, Day 1, read-out: Cmax) was 104 ± 48.9 ng/mL, the AUC(0-t) ([1]; cynomolgus monkey, 3 mg/kg, monkey 3 mpk, Day 28, read-out: AUC0-24) was 412 ± 191 ng·h/mL and the Cmax ([1]; cynomolgus monkey, 3 mg/kg, monkey 3 mpk, Day 28, read-out: Cmax) was 304 ± 156 ng/mL. For the same compound, the AUC(0-t) ([1]; cynomolgus monkey, 3 mg/kg, monkey, NOAEL 3 mpk, read-out: AUC0-24 h at NOAEL) was 356 ng·h/mL, the Cmax ([1]; cynomolgus monkey, 3 mg/kg, monkey, NOAEL 3 mpk, read-out: Cmax at NOAEL) was 232 ng/mL and the AUC(0-t) ([1]; cynomolgus monkey, 6 mg/kg, monkey 6 mpk, Day 1, read-out: AUC0-24) was 692 ± 223 ng·h/mL. The Cmax ([1]; cynomolgus monkey, 6 mg/kg, monkey 6 mpk, Day 1, read-out: Cmax) was 401 ± 153 ng/mL, the AUC(0-t) ([1]; cynomolgus monkey, 6 mg/kg, monkey 6 mpk, Day 28, read-out: AUC0-24) was 1880 ± 911 ng·h/mL and the Cmax ([1]; cynomolgus monkey, 6 mg/kg, monkey 6 mpk, Day 28, read-out: Cmax) was 985 ± 475 ng/mL. For the same compound, the AUC(0-t) ([1]; cynomolgus monkey, 6 mg/kg, monkey 6 mpk, Day 91, read-out: AUC0-24) was 1410 ± 6190 ng·h/mL, the Cmax ([1]; cynomolgus monkey, 6 mg/kg, monkey 6 mpk, Day 91, read-out: Cmax) was 784 ± 512 ng/mL and the AUC(0-t) ([1]; cynomolgus monkey, 12 mg/kg, monkey 12 mpk, Day 1, read-out: AUC0-24) was 2510 ± 1420 ng·h/mL. The Cmax ([1]; cynomolgus monkey, 12 mg/kg, monkey 12 mpk, Day 1, read-out: Cmax) was 975 ± 648 ng/mL, the AUC(0-t) ([1]; cynomolgus monkey, 12 mg/kg, monkey 12 mpk, Day 28, read-out: AUC0-24) was 6930 ± 3790 ng·h/mL and the Cmax ([1]; cynomolgus monkey, 12 mg/kg, monkey 12 mpk, Day 28, read-out: Cmax) was 2160 ± 724 ng/mL. The AUC(0-t) ([1]; cynomolgus monkey, 12 mg/kg, monkey 12 mpk, Day 91, read-out: AUC0-24) was 6430 ± 3660 ng·h/mL, the Cmax ([1]; cynomolgus monkey, 12 mg/kg, monkey 12 mpk, Day 91, read-out: Cmax) was 1960 ± 677 ng/mL and the “Ratio over time (D 91/D 1) AUC” value ([1]; monkey 3 mpk) was 2.4. For the same compound, the “Ratio over time (D 91/D 1) Cmax” value ([1]; monkey 3 mpk) was 2.8, the “Ratio over time (D 91/D 1) AUC” value ([1]; monkey 6 mpk) was 2.2 and the “Ratio over time (D 91/D 1) Cmax” value ([1]; monkey 6 mpk) was 2.2. For the same compound, the “Ratio over time (D 91/D 1) AUC” value ([1]; monkey 12 mpk) was 2.6, the “Ratio over time (D 91/D 1) Cmax” value ([1]; monkey 12 mpk) was 2.5 and the “Morbidity / un-scheduled sacrifice” value ([1]; monkey, 12 mpk, 12 mg/kg) was “morbidity and significant symptoms necessitating un-scheduled sacrifice and dosing holiday”. The “Effects on body weight (overall), food consumption (overall), clinical pathology in general, anatomic pathology, ophthalmology” value ([1]; monkey, 13 weeks) was “No adverse effects observed”, the “Opportunistic infection in GI tract” value ([1]; monkey, 13 weeks) was “dose-dependent opportunistic infection in GI tract” and the Adverse effects ([1]; monkey, more significant and persistent in mid/high dose groups) was “Liquid and non-formed feces associated with dehydration”. The “Potency relative to Ritlecitinib, JAK3 hPBMC IL-2/pSTAT5” value (JAK3) was 2.3 fold, the IC50 (JAK3; hPBMC, IL-2/pSTAT5) was 23 nM and the JAK specificity (JAK3; vs other JAK kinases like JAK2) was “completely specific for JAK3”. For the same compound, the “Cell IC50, JAK1/2 hPBMC IFNγ/pSTAT1” value (JAK1/2) was “Inactive”, the “Inhibition of biomarker readouts, comparison of regimens” value (ITK and JAK3; 10 mg TID, 15 mg BID, 30 mg BID doses) was “inhibited biomarker readouts to a similar extent” and the “Change of MAD Day 1 EC50 vs Days 7 & 15 EC50” value (ITK and JAK3; MAD) was “No significant change”. For the same compound, the “Modulation of all PD biomarker readouts” value (ITK and JAK3; MAD) was “dose- and time-dependent modulation; also recorded: dose and time dependent modulation”, the “Inhibition of biomarker readouts” value (ITK and JAK3; MAD, 15-40 mg BID, across the dosing intervals) was 50-90% and the “Inhibition of biomarker readouts” value (ITK and JAK3; MAD, 2 hours post treatment, doses of 15 mg to 80 mg) was “Near-complete inhibition”.
